Measured values published in US20260356819A1, “OXOISOINDOLINYL-SUBSTITUTED […] DERIVATIVE AND USE THEREOF” (GLUETACS THERAPEUTICS (SHANGHAI) CO., LTD., priority 2023, published 2026).

Assays:
Assay type in all cases: cell-based
Settings in all cases: compounds at 50 nM and 500 nM
[1] = biological target: T1, WEE1 (Homo sapiens, UniProt P30291+Q96SW2); assay: Western blot degradation of WEE1 in hPBMCs (24 h)
T1 construct: The supernatant was aspirated as the extracted total cell protein; endogenous in cells; host or cells: human peripheral blood mononuclear cells (hPBMCs)
T1 sequence (P30291 whole entry): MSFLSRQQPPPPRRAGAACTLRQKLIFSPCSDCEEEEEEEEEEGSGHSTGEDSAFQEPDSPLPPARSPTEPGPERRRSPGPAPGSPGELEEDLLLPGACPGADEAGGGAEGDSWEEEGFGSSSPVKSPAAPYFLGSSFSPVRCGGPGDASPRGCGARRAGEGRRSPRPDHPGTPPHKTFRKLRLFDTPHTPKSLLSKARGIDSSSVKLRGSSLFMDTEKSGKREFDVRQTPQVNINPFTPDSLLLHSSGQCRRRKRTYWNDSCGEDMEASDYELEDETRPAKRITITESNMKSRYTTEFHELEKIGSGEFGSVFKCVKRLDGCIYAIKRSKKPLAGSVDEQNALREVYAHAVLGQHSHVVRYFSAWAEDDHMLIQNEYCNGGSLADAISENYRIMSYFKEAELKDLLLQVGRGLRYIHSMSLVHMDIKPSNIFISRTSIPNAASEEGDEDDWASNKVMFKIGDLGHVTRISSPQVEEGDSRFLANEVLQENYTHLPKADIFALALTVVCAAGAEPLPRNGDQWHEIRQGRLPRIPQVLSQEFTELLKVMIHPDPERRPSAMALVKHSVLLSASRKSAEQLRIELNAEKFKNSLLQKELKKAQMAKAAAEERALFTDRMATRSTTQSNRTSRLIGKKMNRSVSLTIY
T1 sequence (Q96SW2 whole entry): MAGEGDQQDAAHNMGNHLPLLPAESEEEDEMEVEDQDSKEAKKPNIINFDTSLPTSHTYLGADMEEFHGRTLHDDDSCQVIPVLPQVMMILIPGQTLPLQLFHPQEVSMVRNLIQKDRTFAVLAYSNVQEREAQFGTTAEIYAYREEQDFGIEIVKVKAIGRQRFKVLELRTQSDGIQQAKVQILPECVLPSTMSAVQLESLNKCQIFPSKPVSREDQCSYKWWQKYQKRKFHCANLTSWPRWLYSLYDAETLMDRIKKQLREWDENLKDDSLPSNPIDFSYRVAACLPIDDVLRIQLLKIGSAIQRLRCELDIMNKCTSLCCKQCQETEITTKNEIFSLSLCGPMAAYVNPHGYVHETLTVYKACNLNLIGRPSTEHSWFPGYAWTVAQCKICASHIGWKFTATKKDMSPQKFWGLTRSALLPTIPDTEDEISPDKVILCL
T1 sequence (Q16531 whole entry partner): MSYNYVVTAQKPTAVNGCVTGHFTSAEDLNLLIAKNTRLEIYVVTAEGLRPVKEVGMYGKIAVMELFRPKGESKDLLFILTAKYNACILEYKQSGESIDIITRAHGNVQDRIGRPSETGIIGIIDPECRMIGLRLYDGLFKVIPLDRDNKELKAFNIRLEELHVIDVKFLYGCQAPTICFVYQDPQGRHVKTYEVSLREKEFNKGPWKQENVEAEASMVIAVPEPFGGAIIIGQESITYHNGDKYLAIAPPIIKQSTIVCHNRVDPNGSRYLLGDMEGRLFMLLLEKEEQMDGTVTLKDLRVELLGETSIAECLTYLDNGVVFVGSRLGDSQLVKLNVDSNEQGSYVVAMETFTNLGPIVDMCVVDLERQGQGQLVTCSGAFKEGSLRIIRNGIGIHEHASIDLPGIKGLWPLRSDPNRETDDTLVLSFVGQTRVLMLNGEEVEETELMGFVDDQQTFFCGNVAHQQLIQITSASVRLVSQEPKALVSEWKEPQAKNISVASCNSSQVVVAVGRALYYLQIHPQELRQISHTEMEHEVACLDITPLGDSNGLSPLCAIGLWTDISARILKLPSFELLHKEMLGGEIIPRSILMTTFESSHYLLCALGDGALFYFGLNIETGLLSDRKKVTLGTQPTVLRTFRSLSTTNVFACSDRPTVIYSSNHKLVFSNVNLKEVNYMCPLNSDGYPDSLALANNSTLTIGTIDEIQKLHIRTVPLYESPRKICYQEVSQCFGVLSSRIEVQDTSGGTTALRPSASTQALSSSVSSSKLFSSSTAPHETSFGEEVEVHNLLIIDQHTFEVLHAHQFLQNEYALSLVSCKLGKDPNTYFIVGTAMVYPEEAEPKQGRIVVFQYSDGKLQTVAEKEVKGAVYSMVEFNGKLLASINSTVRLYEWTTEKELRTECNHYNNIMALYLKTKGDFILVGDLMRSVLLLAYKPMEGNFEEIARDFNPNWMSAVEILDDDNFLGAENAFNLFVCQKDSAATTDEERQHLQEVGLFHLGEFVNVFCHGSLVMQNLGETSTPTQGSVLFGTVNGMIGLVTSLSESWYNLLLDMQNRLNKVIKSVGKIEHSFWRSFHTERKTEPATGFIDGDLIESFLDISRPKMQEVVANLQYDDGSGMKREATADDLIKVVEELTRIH
How it was run: (§1)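 In this assay, each compound was incubated with human PBMCs for 24 h at 50 nM and 500 nM. Target levels were measured by Western blot densitometry normalised to an internal control.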

[2] = biological target: T2, IKZF3 (Homo sapiens, UniProt Q96SW2+Q9UKT9); assay: Western blot degradation of IKZF3 in hPBMCs (24 h)
T2 construct: The supernatant was aspirated as the extracted total cell protein; endogenous in cells; host or cells: human peripheral blood mononuclear cells (hPBMCs)
T2 sequence (Q9UKT9 whole entry): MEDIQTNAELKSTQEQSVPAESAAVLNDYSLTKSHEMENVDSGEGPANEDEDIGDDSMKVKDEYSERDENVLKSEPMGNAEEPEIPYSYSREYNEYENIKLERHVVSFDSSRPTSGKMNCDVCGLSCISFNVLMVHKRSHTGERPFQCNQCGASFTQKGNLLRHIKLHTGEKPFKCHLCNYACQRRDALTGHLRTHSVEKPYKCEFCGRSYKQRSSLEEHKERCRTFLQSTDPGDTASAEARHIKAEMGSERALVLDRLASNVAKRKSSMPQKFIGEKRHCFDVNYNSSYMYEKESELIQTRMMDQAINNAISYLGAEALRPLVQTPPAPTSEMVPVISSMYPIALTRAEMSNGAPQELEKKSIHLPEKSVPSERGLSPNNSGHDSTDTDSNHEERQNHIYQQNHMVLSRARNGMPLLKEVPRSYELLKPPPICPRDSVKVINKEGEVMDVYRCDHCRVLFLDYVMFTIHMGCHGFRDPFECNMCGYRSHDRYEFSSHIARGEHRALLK
T2 sequence (Q96SW2 whole entry): as the sequence (Q96SW2 whole entry) above
T2 sequence (Q16531 whole entry partner): as the sequence (Q16531 whole entry partner) above
How it was run: as §1

[3] = biological target: T3, GSPT1 (Homo sapiens, UniProt P15170+Q96SW2); assay: Western blot degradation of GSPT1 in hPBMCs (24 h)
T3 construct: The supernatant was aspirated as the extracted total cell protein; endogenous in cells; host or cells: human peripheral blood mononuclear cells (hPBMCs)
How it was run: as §1

[4] = biological target: T4, CK1α (Homo sapiens, UniProt P48729+Q96SW2); assay: Western blot degradation of CK1α in hPBMCs (24 h)
T4 construct: The supernatant was aspirated as the extracted total cell protein; endogenous in cells; host or cells: human peripheral blood mononuclear cells (hPBMCs)
T4 sequence (P48729 whole entry): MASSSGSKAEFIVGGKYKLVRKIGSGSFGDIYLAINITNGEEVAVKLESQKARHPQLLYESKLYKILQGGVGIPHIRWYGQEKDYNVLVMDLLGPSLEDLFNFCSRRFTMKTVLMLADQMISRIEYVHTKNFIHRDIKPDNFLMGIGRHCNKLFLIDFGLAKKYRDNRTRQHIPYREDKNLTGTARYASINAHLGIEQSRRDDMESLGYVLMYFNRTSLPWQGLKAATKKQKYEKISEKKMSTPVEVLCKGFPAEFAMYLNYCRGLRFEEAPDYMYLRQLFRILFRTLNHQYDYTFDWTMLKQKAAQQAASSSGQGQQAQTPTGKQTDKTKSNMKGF
T4 sequence (Q96SW2 whole entry): as the sequence (Q96SW2 whole entry) above
T4 sequence (Q16531 whole entry partner): as the sequence (Q16531 whole entry partner) above
How it was run: as §1

[5] = biological target: T5, IKZF1 (Homo sapiens, UniProt Q13422+Q96SW2); assay: Western blot degradation of IKZF1 in hPBMCs (24 h)
T5 construct: The supernatant was aspirated as the extracted total cell protein; endogenous in cells; host or cells: human peripheral blood mononuclear cells (hPBMCs)
T5 sequence (Q13422 whole entry): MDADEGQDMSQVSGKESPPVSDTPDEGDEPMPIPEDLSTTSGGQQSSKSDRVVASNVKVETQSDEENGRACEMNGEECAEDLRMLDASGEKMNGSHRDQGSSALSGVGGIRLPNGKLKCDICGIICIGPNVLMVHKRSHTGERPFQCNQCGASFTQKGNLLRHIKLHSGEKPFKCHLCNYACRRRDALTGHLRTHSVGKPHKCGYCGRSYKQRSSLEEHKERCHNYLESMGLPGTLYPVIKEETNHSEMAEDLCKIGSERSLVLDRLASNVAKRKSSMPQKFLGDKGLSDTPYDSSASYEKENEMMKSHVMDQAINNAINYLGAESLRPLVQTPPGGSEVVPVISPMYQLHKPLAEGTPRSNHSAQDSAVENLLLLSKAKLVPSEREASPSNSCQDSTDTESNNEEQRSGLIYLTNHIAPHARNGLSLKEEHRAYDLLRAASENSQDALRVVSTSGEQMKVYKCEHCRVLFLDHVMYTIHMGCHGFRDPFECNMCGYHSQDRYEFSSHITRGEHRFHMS
T5 sequence (Q96SW2 whole entry): as the sequence (Q96SW2 whole entry) above
T5 sequence (Q16531 whole entry partner): as the sequence (Q16531 whole entry partner) above
How it was run: as §1

[6] = biological target: T6, IKZF2 (Homo sapiens, UniProt Q96SW2+Q9UKS7); assay: Western blot degradation of IKZF2 in hPBMCs (24 h)
T6 construct: The supernatant was aspirated as the extracted total cell protein; endogenous in cells; host or cells: human peripheral blood mononuclear cells (hPBMCs)
T6 sequence (Q9UKS7 whole entry): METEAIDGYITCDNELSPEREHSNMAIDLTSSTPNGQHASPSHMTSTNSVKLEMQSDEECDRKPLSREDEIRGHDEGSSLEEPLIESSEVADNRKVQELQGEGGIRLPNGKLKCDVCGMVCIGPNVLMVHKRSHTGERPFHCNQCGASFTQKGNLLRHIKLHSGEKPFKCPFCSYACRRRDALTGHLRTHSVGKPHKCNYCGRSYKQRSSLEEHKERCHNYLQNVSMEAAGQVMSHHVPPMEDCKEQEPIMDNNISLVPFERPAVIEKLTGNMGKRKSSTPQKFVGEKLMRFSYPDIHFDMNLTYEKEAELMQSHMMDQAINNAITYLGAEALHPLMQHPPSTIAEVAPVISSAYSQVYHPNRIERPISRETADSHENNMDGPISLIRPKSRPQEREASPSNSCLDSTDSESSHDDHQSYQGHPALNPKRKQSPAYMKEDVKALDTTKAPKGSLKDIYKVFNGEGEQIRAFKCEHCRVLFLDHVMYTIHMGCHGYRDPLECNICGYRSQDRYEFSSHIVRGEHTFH
T6 sequence (Q96SW2 whole entry): as the sequence (Q96SW2 whole entry) above
T6 sequence (Q16531 whole entry partner): as the sequence (Q16531 whole entry partner) above
How it was run: as §1

SMILES	WEE1 substrate protein remaining % [1]	IKZF3 substrate protein remaining % [2]	GSPT1 substrate protein remaining % [3]	CK1α substrate protein remaining % [4]	IKZF1 substrate protein remaining % [5]	IKZF2 substrate protein remaining % [6]
O=C1CCN(N2C(=O)c3ccc(CN4CCN(C(c5ccccn5)c5ccccn5)CC4)cc3C2=O)C(=O)N1 [GT-06379, 5-((4-(di(pyridin-2-yl)methyl)piperazin-1-yl)methyl)-2-(2,4-dioxotetrahydropyrimidin-1(2H)-yl)isoindoline-1,3-dione]	A (0% ≤ substrate protein remaining % ≤80%)	A (0% ≤ substrate protein remaining % ≤80%)	A (0% ≤ substrate protein remaining % ≤80%)	B (80%< substrate protein remaining % ≤100%)	B (80%< substrate protein remaining % ≤100%)	A (0% ≤ substrate protein remaining % ≤80%)
CC1(C)CN(Cc2ccc3c(c2)C(=O)N(N2CCC(=O)NC2=O)C3=O)CCN1C(c1ccccc1)c1ccccc1 [GT-06385, 5-((4-benzhydryl-3,3-dimethylpiperazin-1-yl)methyl)-2-(2,4-dioxotetrahydropyrimidin-1(2H)-yl)isoindoline-1,3-dione]	A (0% ≤ substrate protein remaining % ≤80%)	A (0% ≤ substrate protein remaining % ≤80%)	A (0% ≤ substrate protein remaining % ≤80%)	B (80%< substrate protein remaining % ≤100%)	B (80%< substrate protein remaining % ≤100%)	B (80%< substrate protein remaining % ≤100%)
O=C1CCN(N2Cc3cc(CN4CCC(c5nccc(Cl)c5Cl)CC4)ccc3C2=O)C(=O)N1 [GT-06388, 1-(5-((4-(3,4-dichloropyridin-2-yl)piperidin-1-yl)methyl)-1-oxoisoindolin-2-yl)dihydropyrimidine-2,4(1H,3H)-dione]	B (80%< substrate protein remaining % ≤100%)	B (80%< substrate protein remaining % ≤100%)	A (0% ≤ substrate protein remaining % ≤80%)	B (80%< substrate protein remaining % ≤100%)	B (80%< substrate protein remaining % ≤100%)	B (80%< substrate protein remaining % ≤100%)
O=C1CCN(N2Cc3cc(CN4CCC(c5ccnc(Cl)c5Cl)CC4)ccc3C2=O)C(=O)N1 [GT-06390, 1-(5-((4-(2,3-dichloropyridin-4-yl)piperidin-1-yl)methyl)-1-oxoisoindolin-2-yl)dihydropyrimidine-2,4(1H,3H)-dione]	B (80%< substrate protein remaining % ≤100%)	B (80%< substrate protein remaining % ≤100%)	A (0% ≤ substrate protein remaining % ≤80%)	B (80%< substrate protein remaining % ≤100%)	B (80%< substrate protein remaining % ≤100%)	B (80%< substrate protein remaining % ≤100%)
O=C1CCN(N2Cc3cc(CN4CC=C(c5cncc(Cl)c5)CC4)ccc3C2=O)C(=O)N1 [GT-06394, 1-(5-((5-chloro-3′,6′-dihydro-[3,4′-bipyridin]-1′ (2′H)-yl)methyl)-1-oxoisoindolin-2-yl)dihydropyrimidine-2,4(1H,3H)-dione]	B (80%< substrate protein remaining % ≤100%)	B (80%< substrate protein remaining % ≤100%)	A (0% ≤ substrate protein remaining % ≤80%)	A (0% ≤ substrate protein remaining % ≤80%)	B (80%< substrate protein remaining % ≤100%)	A (0% ≤ substrate protein remaining % ≤80%)
O=C1CCN(N2Cc3cc(CN4CC=C(c5ncccc5F)CC4)ccc3C2=O)C(=O)N1 [GT-06395, 1-(5-((3-fluoro-3′,6′-dihydro-[2,4′-bipyridin]-1′ (2′H)-yl)methyl)-1-oxoisoindolin-2-yl)dihydropyrimidine-2,4(1H,3H)-dione]	B (80%< substrate protein remaining % ≤100%)	B (80%< substrate protein remaining % ≤100%)	A (0% ≤ substrate protein remaining % ≤80%)	A (0% ≤ substrate protein remaining % ≤80%)	B (80%< substrate protein remaining % ≤100%)	B (80%< substrate protein remaining % ≤100%)
O=C1CCN(N2Cc3cc(CN4CCC(c5ccnc(F)c5F)CC4)ccc3C2=O)C(=O)N1 [GT-06396, 1-(5-((4-(2,3-difluoropyridin-4-yl)piperidin-1-yl)methyl)-1-oxoisoindolin-2-yl)dihydropyrimidine-2,4(1H,3H)-dione]	B (80%< substrate protein remaining % ≤100%)	B (80%< substrate protein remaining % ≤100%)	B (80%< substrate protein remaining % ≤100%)	A (0% ≤ substrate protein remaining % ≤80%)	B (80%< substrate protein remaining % ≤100%)	B (80%< substrate protein remaining % ≤100%)
O=C1CCN(N2Cc3cc(CN4CC=C(c5ccnc(F)c5F)CC4)ccc3C2=O)C(=O)N1 [GT-06397, 1-(5-((2′,3′-difluoro-3,6-dihydro-[4,4′-bipyridin]-1(2H)-yl)methyl)-1-oxoisoindolin-2-yl)dihydropyrimidine-2,4(1H,3H)-dione]	A (0% ≤ substrate protein remaining % ≤80%)	B (80%< substrate protein remaining % ≤100%)	A (0% ≤ substrate protein remaining % ≤80%)	B (80%< substrate protein remaining % ≤100%)	B (80%< substrate protein remaining % ≤100%)	A (0% ≤ substrate protein remaining % ≤80%)
CC1CN(Cc2ccc3c(c2)C(=O)N(N2CCC(=O)NC2=O)C3=O)CC(C)N1C(c1ccccc1)c1ccccc1 (stereo not drawn) [GT-06430, 5-((4-benzhydryl-3,5-dimethylpiperazin-1-yl)methyl)-2-(2,4-dioxotetrahydropyrimidin-1(2H)-yl)isoindoline-1,3-dione]	A (0% ≤ substrate protein remaining % ≤80%)	A (0% ≤ substrate protein remaining % ≤80%)	A (0% ≤ substrate protein remaining % ≤80%)	B (80%< substrate protein remaining % ≤100%)	A (0% ≤ substrate protein remaining % ≤80%)	B (80%< substrate protein remaining % ≤100%)
CC1CN(Cc2ccc3c(c2)CN(N2CCC(=O)NC2=O)C3=O)CC(C)N1C(c1ccccc1)c1ccccc1 (stereo not drawn) [GT-06431, 1-(5-((4-benzhydryl-3,5-dimethylpiperazin-1-yl)methyl)-1-oxoisoindolin-2-yl)dihydropyrimidine-2,4(1H,3H)-dione]	A (0% ≤ substrate protein remaining % ≤80%)	B (80%< substrate protein remaining % ≤100%)	A (0% ≤ substrate protein remaining % ≤80%)	B (80%< substrate protein remaining % ≤100%)	A (0% ≤ substrate protein remaining % ≤80%)	A (0% ≤ substrate protein remaining % ≤80%)
O=C1CCN(N2C(=O)c3ccc(CN4CCN(Cc5ccccc5-c5ccc(Cl)cc5)CC4)cc3C2=O)C(=O)N1 [GT-06432, 5-((4-((4′-chloro-[1,1′-biphenyl]-2-yl)methyl)piperazin-1-yl)methyl)-2-(2,4-dioxotetrahydropyrimidin-1(2H)-yl)isoindoline-1,3-dione]	A (0% ≤ substrate protein remaining % ≤80%)	B (80%< substrate protein remaining % ≤100%)	A (0% ≤ substrate protein remaining % ≤80%)	B (80%< substrate protein remaining % ≤100%)	A (0% ≤ substrate protein remaining % ≤80%)	B (80%< substrate protein remaining % ≤100%)
